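Five concentrations, 48 hours, 96-well plates. Here, GI50 denotes the concentration required for 50% inhibition of growth.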 Calls of active or inactive are those of the source. No stated cut-off is given here; in the data, active = GI50 up to about 1.1 µM and inactive = higher.
Key:
Assay in all cases: NCI tumour cell line growth inhibition, 48 h
Malme-3M = system: Malme-3M
HOP-62 = system: HOP-62
OVCAR-8 = system: OVCAR-8
K562 = system: K562
HT-29 = system: HT-29
OVCAR-5 = system: OVCAR-5
LXFL 529 = system: LXFL 529
CCRF-CEM = system: CCRF-CEM
EKVX = system: EKVX
M14 = system: M14
CAKI-1 = system: CAKI-1
KM12 = system: KM12
ACHN = system: ACHN
SF-539 = system: SF-539
Hs-578T = system: Hs-578T
MDA-MB-435 = system: MDA-MB-435
HL-60 = system: HL-60
NCI/ADR-RES = system: NCI/ADR-RES
MDA-MB-231 = system: MDA-MB-231
T47D = system: T47D

SMILES | GI50 (Malme-3M) | GI50 (HOP-62) | GI50 (OVCAR-8) | GI50 (K562) | GI50 (HT-29) | GI50 (OVCAR-5) | GI50 (LXFL 529) | GI50 (CCRF-CEM) | GI50 (EKVX) | GI50 (M14) | GI50 (CAKI-1) | GI50 (KM12) | GI50 (ACHN) | GI50 (SF-539) | GI50 (Hs-578T) | GI50 (MDA-MB-435) | GI50 (HL-60) | GI50 (NCI/ADR-RES) | GI50 (MDA-MB-231) | GI50 (T47D)
COc1ccc(/C=C2\Cc3ccccc3C2=O)cc1OC | > 100 µM (inactive) | > 100 µM (inactive) | > 100 µM (inactive) | > 100 µM (inactive) | > 100 µM (inactive) | > 100 µM (inactive) | 75 µM (inactive) | > 100 µM (inactive) | > 100 µM (inactive) | > 100 µM (inactive) | > 100 µM (inactive) | > 100 µM (inactive) | > 100 µM (inactive) |  |  |  |  |  |  | 
Fc1ccc(C(OCCN2CCC3CCC(C2)N3CCCc2ccccc2)c2ccc(F)cc2)cc1 (centres undefined) | 2.29 µM (inactive) | 7.38 µM (inactive) | 2.24 µM (inactive) | 2.05 µM (inactive) | 3.3 µM (inactive) | 6.71 µM (inactive) |  | 3.01 µM (inactive) | 3.82 µM (inactive) | 2.1 µM (inactive) | 4.86 µM (inactive) | 3.11 µM (inactive) | 5.6 µM (inactive) | 1.35 µM (inactive) | 4.58 µM (inactive) | 2.61 µM (inactive) | 2.12 µM (inactive) | 3.62 µM (inactive) | 3.87 µM (inactive) | 2.16 µM (inactive)
COc1ccc(-c2cc(O)c3cc4c(cc3n2)OCO4)cc1 | > 100 µM (inactive) | 61 µM (inactive) | > 100 µM (inactive) | > 100 µM (inactive) | > 100 µM (inactive) |  | > 100 µM (inactive) | > 100 µM (inactive) | 19.9 µM (inactive) | > 100 µM (inactive) |  |  | > 100 µM (inactive) | > 100 µM (inactive) |  |  | > 100 µM (inactive) |  |  | 
Cc1nn(-c2cc(Cl)ccc2[N+](=O)[O-])c(C)c1Cl | > 100 µM (inactive) | > 100 µM (inactive) | > 100 µM (inactive) | 20.3 µM (inactive) | > 100 µM (inactive) | > 100 µM (inactive) |  | 37.5 µM (inactive) | 76 µM (inactive) | > 100 µM (inactive) | 83.4 µM (inactive) | > 100 µM (inactive) | > 100 µM (inactive) | > 100 µM (inactive) | > 100 µM (inactive) | > 100 µM (inactive) | 91.8 µM (inactive) | 55.8 µM (inactive) | 48 µM (inactive) | 38.2 µM (inactive)
COC(=O)C(Cc1nc2ccccc2nc1O)/C(=N\NC(C)(C)C)C(=O)Nc1c(C)cc(Br)cc1C (centres undefined) | 27.6 µM (inactive) | 35 µM (inactive) | 21.9 µM (inactive) | 29.4 µM (inactive) | 30.5 µM (inactive) | > 100 µM (inactive) | 21.1 µM (inactive) | 17.8 µM (inactive) | 36.4 µM (inactive) | 21.8 µM (inactive) | 24.5 µM (inactive) | 41 µM (inactive) | 32.9 µM (inactive) | 19.9 µM (inactive) |  |  |  |  |  | 
Nc1cc2c3c(cccc3c1)C(=O)N(c1ccc(OCCN3CCCCC3)cc1)C2=O | 14.5 µM (inactive) | 15.8 µM (inactive) | 16.1 µM (inactive) | 12.1 µM (inactive) | 10.2 µM (inactive) | 20.8 µM (inactive) |  | 21.2 µM (inactive) | 20.4 µM (inactive) | 15.5 µM (inactive) | 17.8 µM (inactive) | 20 µM (inactive) | 15.9 µM (inactive) | 14 µM (inactive) | 27.7 µM (inactive) | 24.7 µM (inactive) | 4.89 µM (inactive) | 19.2 µM (inactive) | 14.2 µM (inactive) | 20.4 µM (inactive)
COc1ccc(N2C(=O)/C(=C\c3cc(OC)c(OC)c(OC)c3)SC2c2ccccc2)cc1 (centres undefined) | 54.6 µM (inactive) | > 100 µM (inactive) | 95.9 µM (inactive) | 38.3 µM (inactive) | > 100 µM (inactive) | > 100 µM (inactive) |  | 21.2 µM (inactive) | 83.9 µM (inactive) | 55.7 µM (inactive) | > 100 µM (inactive) | 51.6 µM (inactive) | 62.4 µM (inactive) | > 100 µM (inactive) | 50.9 µM (inactive) | 27.4 µM (inactive) | 10.4 µM (inactive) | 34.8 µM (inactive) | > 100 µM (inactive) | 42.6 µM (inactive)
COc1cc2c3c4c1OCc1c5c(cc(c1-4)CC3[N+](C)(C)CC2)OCO5 (centres undefined) | 60.5 µM (inactive) | 31.1 µM (inactive) | > 72.9 µM (inactive) | > 86.9 µM (inactive) | > 100 µM (inactive) | > 100 µM (inactive) |  | > 100 µM (inactive) | > 100 µM (inactive) | > 100 µM (inactive) | > 100 µM (inactive) | > 100 µM (inactive) | > 100 µM (inactive) | 11.2 µM (inactive) | 4.18 µM (inactive) | > 100 µM (inactive) | > 100 µM (inactive) | > 80.5 µM (inactive) | > 100 µM (inactive) | > 100 µM (inactive)
CC1(C)N=C(/C(C#N)=[N+](/[O-])C(=O)c2ccccc2)C(C)(C)N1O | > 100 µM (inactive) | > 100 µM (inactive) | > 100 µM (inactive) | > 100 µM (inactive) | > 100 µM (inactive) | > 100 µM (inactive) |  | > 100 µM (inactive) | > 100 µM (inactive) | > 100 µM (inactive) | > 100 µM (inactive) | > 100 µM (inactive) | > 100 µM (inactive) | > 100 µM (inactive) | > 100 µM (inactive) | > 100 µM (inactive) | > 100 µM (inactive) | > 100 µM (inactive) | > 100 µM (inactive) | > 100 µM (inactive)
O=C1NCCS(=O)(=O)N[C@@H](CC2=CC=CCC2)C(=O)N2CCCC12 (some centres undefined) | > 100 µM (inactive) | > 100 µM (inactive) | > 100 µM (inactive) | > 100 µM (inactive) | > 100 µM (inactive) | > 100 µM (inactive) | > 100 µM (inactive) | > 100 µM (inactive) | > 100 µM (inactive) | > 100 µM (inactive) |  | > 100 µM (inactive) | > 100 µM (inactive) | > 100 µM (inactive) |  |  | > 100 µM (inactive) |  |  | 
N#CC1(Cc2ccccc2)CCCCN1C(=O)c1ccccc1 (centres undefined) | > 100 µM (inactive) | > 100 µM (inactive) | > 100 µM (inactive) | > 100 µM (inactive) | > 100 µM (inactive) | > 100 µM (inactive) | > 100 µM (inactive) | > 100 µM (inactive) | > 100 µM (inactive) | > 100 µM (inactive) |  | > 100 µM (inactive) | > 100 µM (inactive) | > 100 µM (inactive) |  |  | 45.2 µM (inactive) |  |  | 
COc1cc(C(=O)CBr)c(OC)cc1C | > 100 µM (inactive) | > 100 µM (inactive) | > 100 µM (inactive) | > 100 µM (inactive) | > 100 µM (inactive) | > 100 µM (inactive) |  | > 100 µM (inactive) | > 100 µM (inactive) | > 100 µM (inactive) | > 100 µM (inactive) | > 100 µM (inactive) | > 100 µM (inactive) | > 100 µM (inactive) | 72.4 µM (inactive) | > 100 µM (inactive) | > 100 µM (inactive) | > 100 µM (inactive) | > 100 µM (inactive) | > 100 µM (inactive)
C=C1C(=O)O[C@H]2[C@@H]3O[C@@](C)(CC/C=C(\C)CCC[C@@H]2C)[C@H](O)C[C@@H]13 | 6.32 µM (inactive) | 10.5 µM (inactive) | 3.15 µM (inactive) | 1.25 µM (inactive) | 1.38 µM (inactive) | 13.2 µM (inactive) |  | 10.2 µM (inactive) | 22.9 µM (inactive) | 1.95 µM (inactive) | 1.42 µM (inactive) | 10.8 µM (inactive) | 1.98 µM (inactive) | 2.14 µM (inactive) | 3.29 µM (inactive) | 3.06 µM (inactive) | 2.34 µM (inactive) | 2.04 µM (inactive) | 5.3 µM (inactive) | 3.58 µM (inactive)
CSC1NC=Nc2c1sc(=S)n2-c1ccccc1 (centres undefined) | > 100 µM (inactive) | 24.2 µM (inactive) | > 100 µM (inactive) |  | > 100 µM (inactive) | > 100 µM (inactive) | > 100 µM (inactive) |  | > 100 µM (inactive) | > 100 µM (inactive) | > 100 µM (inactive) | > 100 µM (inactive) | > 100 µM (inactive) | > 100 µM (inactive) |  |  |  |  |  | 
Cc1ccccc1OC(C)C(=O)NN1C(=O)CC(=O)N(c2ccc(Cl)cc2)C1=S (centres undefined) | 48.2 µM (inactive) | 47.9 µM (inactive) | 34.1 µM (inactive) | 38.6 µM (inactive) | 39.5 µM (inactive) | 61.2 µM (inactive) |  | 19.3 µM (inactive) | 41.7 µM (inactive) | 44.8 µM (inactive) | 37.8 µM (inactive) | 36.3 µM (inactive) | 33.8 µM (inactive) | 46.1 µM (inactive) | 63.2 µM (inactive) | 49.3 µM (inactive) | 13.4 µM (inactive) | 29.4 µM (inactive) | 26 µM (inactive) | 34.6 µM (inactive)
C[C@H]1COC2=C1C(=O)C(=O)c1c2ccc2c1CCCC2(C)C [CRYPTOTANSHINONE] | 0.305 µM (active) | 3.68 µM (inactive) | 2.58 µM (inactive) | 3.61 µM (inactive) | 2.18 µM (inactive) | 16.1 µM (inactive) |  | 4.31 µM (inactive) | 4.62 µM (inactive) | 1.03 µM (active) | 8.22 µM (inactive) | 2.19 µM (inactive) | 3.6 µM (inactive) | 3.35 µM (inactive) | 2.29 µM (inactive) | 1.42 µM (inactive) | 2.39 µM (inactive) | 2.79 µM (inactive) | 12 µM (inactive) | 9.46 µM (inactive)

Reference: ChEMBL document CHEMBL1201862, “PubChem BioAssay data set” (2004)
